Measurements taken from patent publication US9126985B2, “Tetra- and pentasubstituted benzimidazolium compounds” (Boehringer Ingelheim International GmbH, priority 2013, dated 2015).

Key:
[1] = target: T1, ENaC (Epithelial Sodium Channel) (Mus musculus, UniProt Q61180+Q9WU38+Q9WU39); experiment: Ussing Chamber assay: inhibition of amiloride sensitive short circuit current in M-1 cells; type: cell-based; settings: Mouse kidney M-1 cells on transwell filters, compound added to apical solution, 37° C.
T1 construct: Mouse kidney M-1 cells were cultivated in DMEM containing 5% FCS and 5 μM dexamethasone; endogenous in cells; host or cells: mouse kidney M-1 cells
T1 sequence (Q61180 1-699): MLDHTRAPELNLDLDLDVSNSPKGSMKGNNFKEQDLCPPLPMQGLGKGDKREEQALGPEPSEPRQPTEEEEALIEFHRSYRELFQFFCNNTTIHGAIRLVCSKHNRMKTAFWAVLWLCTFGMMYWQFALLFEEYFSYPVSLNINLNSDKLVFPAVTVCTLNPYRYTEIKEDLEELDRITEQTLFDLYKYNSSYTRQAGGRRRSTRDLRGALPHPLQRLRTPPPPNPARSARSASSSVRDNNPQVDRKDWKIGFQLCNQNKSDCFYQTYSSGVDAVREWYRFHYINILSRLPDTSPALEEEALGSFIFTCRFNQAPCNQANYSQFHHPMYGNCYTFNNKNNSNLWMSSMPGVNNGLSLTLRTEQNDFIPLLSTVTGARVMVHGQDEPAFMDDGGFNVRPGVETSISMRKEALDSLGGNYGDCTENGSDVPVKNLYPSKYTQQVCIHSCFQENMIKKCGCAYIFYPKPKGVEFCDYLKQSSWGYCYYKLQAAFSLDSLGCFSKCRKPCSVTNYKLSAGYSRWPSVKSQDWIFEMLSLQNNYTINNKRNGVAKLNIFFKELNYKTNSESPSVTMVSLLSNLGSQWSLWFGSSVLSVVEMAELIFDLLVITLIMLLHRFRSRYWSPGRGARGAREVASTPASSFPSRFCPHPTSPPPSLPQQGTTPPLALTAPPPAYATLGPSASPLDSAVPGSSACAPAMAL
T1 sequence (Q9WU38 1-638): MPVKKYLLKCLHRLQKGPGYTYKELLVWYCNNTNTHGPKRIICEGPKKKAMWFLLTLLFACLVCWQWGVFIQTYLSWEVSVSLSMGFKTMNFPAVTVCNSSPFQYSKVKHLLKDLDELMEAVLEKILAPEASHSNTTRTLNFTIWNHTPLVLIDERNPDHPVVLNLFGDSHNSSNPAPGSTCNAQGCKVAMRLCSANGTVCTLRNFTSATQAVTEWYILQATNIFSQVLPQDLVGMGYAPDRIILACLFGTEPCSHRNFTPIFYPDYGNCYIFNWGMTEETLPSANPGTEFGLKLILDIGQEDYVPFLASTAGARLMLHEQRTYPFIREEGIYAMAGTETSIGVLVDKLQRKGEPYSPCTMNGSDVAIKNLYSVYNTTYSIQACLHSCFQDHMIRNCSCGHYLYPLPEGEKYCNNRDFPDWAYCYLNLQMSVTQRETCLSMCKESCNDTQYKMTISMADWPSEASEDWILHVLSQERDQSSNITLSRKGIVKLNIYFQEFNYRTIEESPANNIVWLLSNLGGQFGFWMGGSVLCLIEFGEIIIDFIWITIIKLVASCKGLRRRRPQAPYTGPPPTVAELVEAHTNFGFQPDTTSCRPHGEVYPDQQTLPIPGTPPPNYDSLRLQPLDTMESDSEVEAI
T1 sequence (Q9WU39 1-655): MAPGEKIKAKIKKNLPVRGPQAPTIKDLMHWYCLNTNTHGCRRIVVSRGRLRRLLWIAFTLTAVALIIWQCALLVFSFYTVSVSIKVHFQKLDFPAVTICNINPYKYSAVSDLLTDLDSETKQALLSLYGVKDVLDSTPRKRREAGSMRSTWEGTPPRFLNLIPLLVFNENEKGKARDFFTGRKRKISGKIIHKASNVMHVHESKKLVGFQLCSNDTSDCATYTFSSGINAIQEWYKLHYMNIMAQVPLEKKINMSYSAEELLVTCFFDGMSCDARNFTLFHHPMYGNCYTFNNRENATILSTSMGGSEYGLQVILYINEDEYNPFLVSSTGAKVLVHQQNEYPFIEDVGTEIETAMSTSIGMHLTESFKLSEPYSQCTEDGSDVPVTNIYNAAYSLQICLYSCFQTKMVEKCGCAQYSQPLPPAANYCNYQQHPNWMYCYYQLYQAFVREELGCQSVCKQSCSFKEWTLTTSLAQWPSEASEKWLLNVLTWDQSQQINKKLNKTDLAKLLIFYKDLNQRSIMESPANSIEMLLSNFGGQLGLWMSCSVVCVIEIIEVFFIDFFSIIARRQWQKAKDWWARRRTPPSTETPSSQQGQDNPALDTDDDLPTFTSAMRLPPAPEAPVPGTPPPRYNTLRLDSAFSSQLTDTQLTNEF
Procedure: Mouse kidney M-1 cells were cultivated in DMEM containing 5% FCS and 5 μM dexamethasone for 10 to 12 days on polyester transwell filters. Filters were inserted into a teflon-coated well-plate which fit into the ussing chamber system. Prior to measurement the medium of M-1 cells was replaced with Caco-2 transport buffer (Invitrogen, Germany). During measurements, the Ussing chamber temperature was kept at 37° C. Short circuit currents (I_sc) were measured in the voltage-clamp mode with the software package Lab View for data acquisition and analysis. The transepithelial electrical resistance (TEER) was determined by the application of voltage steps of ±5 mV every 5 sec. Compounds were administered at a final concentration of 3 μM or at increasing concentrations (1-3-10 μM) to the apical solution. At the end of each experiment the amiloride sensitive I_SC was measured by adding 3 μM amiloride to the apical compartment. Results are expressed as inhibition in percent of the amiloride effect or as IC50.
With the example compounds given above, the following IC50 values were determined in the Ussing Chamber assay: […]

[2] = Permeability in CALU-3 cells; type: in vitro ADME; settings: human, CALU-3 cell monolayers, pH 7.4, 37° C., 10 μM compound; for Papp A→B at 90 min, 10 μM: apical-to-basal; for Papp B→A at 90 min, 10 μM: basal-to-apical
Procedure: Permeability in CALU-3 Cells:
Permeability measurements across polarized, confluent CALU-3 cell monolayers grown on permeable filter supports are used to provide information on the potential of a compound to pass the lung epithelium. Apparent permeability coefficients (Papp) of the compounds across the CALU-3 cell monolayers are measured (pH 7.4, 37° C.) in apical-to-basal (AB) and basal-to-apical (BA) transport direction.
CALU-3 cells (1-2×10^5 cells/1 cm^2 area) are seeded on filter inserts (Costar transwell polycarbonate filters, 0.4 μm pore size) and cultured (for 10-12 days DMEM) until tight monolayers are formed. Compounds of interest are dissolved in appropriate solvent (DMSO, 10 mM stock solution). Stock solutions are diluted with HTP-4 buffer (128.13 mM NaCl, 5.36 mM KCl, 1 mM MgSO4, 1.8 mM CaCl2, 4.17 mM NaHCO3, 1.19 mM Na2HPO4×7H2O, 0.41 mM NaH2PO4×H2O, 15 mM HEPES, 20 mM glucose, 0.25% BSA, pH 7.4) to prepare the transport solutions (10 μM compound, final DMSO<=0.5%). The transport solution (TL) is applied to the apical or basolateral donor side for measuring A-B or B-A permeability (3 filter replicates), respectively. The receiver side contains the same buffer as the donor side. After 30 min of accommodation, samples are collected at the start t0=0 min and at the end of the experiment tn=90 min from the donor and at 0, 30, 60, and 90 min also from the receiver chamber. Volume removed is replenished by HTP-4 buffer. The compound concentration in the samples is measured by HPLC-MS/MS or scintillation counting. The permeability coefficient (Papp) and efflux ratio are calculated according to: Papp [cm/s]=(concentration receiver [nM]*volume receiver [mL]/time interval [sec])*(1/filter area)*(1/donor concentration [nM])
With example compounds given above, the following permeability values were determined in the CALU-3 cells assay: […]

Compound | IC50 [1] | Papp A→B at 90 min, 10 μM [2] | Papp B→A at 90 min, 10 μM [2]
CCn1c(CNC(=O)c2nc(Cl)c(N)nc2N)[n+](CC2CCOCC2)c2cc(Cl)c(N(CCO)CCO)cc21 [Example 1.1] | 13 nM | – | –
CCn1c(CNC(=O)c2nc(Cl)c(N)nc2N)[n+](CCOCCOCCO)c2ccc(O)cc21 [Example 1.2] | 1 nM | 0.5 ×10⁻⁶ cm/s | 0.3 ×10⁻⁶ cm/s
CCn1c(CNC(=O)c2nc(Br)c(N)nc2N)[n+](CCOCCOCCO)c2ccc(O)cc21.O=C([O-])C(F)(F)F [Example 2.1] | 1 nM | 1.3 ×10⁻⁶ cm/s | 0.2 ×10⁻⁶ cm/s
C=CC[n+]1c(CNC(=O)c2nc(Br)c(N)nc2N)n(CC)c2cc(OCCCP(=O)(OCC)OCC)ccc21 [Example 2.2] | 2 nM | – | –
CCNC(=O)COc1ccc2c(c1)n(C1CCN(C(C)=O)CC1)c(CNC(=O)c1nc(Cl)c(N)nc1N)[n+]2CC [Example 3.1] | 10 nM | – | –
CCn1c(CNC(=O)c2nc(Cl)c(N)nc2N)[n+](CCCC#N)c2ccc(OCCCP(=O)(O)O)cc21 [Example 4.1] | 31 nM | – | –
CCOP(=O)(O)CCCOc1ccc2c(c1)n(CC)c(CNC(=O)c1nc(Cl)c(N)nc1N)[n+]2CC1CCOCC1 [Example 5.1] | 8 nM | – | –
CC[n+]1c(CNC(=O)c2nc(Cl)c(N)nc2N)n(CC2CCN(C(=O)COCCOC)CC2)c2cc([O-])ccc21 [Example 6.1] | 3 nM | – | –
